Test system: Krebszellen der Zellinie BIR-M1Rk
Type: cell-based, Marshall-Ratten

## COC(CCOCc1ccccc1)(CCOP(N)(=O)N(CCCl)CCCl)OC (racemic) [Beispiel 6]
pH 6
  um den Faktor verringerte Überlebensrate der Krebszellen: 10 000
pH 7
  Toxizität: nur eine geringe Toxizität
